Experimental data reported in US12162858B2, “Quinoline derivatives as inhibitors of AXL/MER RTK and CSF1R” (QURIENT CO., LTD., priority 2018, dated 2024).

What was measured:
Mer = molecular target: T1, Mer (Homo sapiens, UniProt Q12866); assay: LanthaScreen Eu kinase binding assay for Mer; conditions: read-out: Mer kinase binding activity (Kd)
T1 construct: purchased Life Technologies
T1 sequence (Q12866 21-999): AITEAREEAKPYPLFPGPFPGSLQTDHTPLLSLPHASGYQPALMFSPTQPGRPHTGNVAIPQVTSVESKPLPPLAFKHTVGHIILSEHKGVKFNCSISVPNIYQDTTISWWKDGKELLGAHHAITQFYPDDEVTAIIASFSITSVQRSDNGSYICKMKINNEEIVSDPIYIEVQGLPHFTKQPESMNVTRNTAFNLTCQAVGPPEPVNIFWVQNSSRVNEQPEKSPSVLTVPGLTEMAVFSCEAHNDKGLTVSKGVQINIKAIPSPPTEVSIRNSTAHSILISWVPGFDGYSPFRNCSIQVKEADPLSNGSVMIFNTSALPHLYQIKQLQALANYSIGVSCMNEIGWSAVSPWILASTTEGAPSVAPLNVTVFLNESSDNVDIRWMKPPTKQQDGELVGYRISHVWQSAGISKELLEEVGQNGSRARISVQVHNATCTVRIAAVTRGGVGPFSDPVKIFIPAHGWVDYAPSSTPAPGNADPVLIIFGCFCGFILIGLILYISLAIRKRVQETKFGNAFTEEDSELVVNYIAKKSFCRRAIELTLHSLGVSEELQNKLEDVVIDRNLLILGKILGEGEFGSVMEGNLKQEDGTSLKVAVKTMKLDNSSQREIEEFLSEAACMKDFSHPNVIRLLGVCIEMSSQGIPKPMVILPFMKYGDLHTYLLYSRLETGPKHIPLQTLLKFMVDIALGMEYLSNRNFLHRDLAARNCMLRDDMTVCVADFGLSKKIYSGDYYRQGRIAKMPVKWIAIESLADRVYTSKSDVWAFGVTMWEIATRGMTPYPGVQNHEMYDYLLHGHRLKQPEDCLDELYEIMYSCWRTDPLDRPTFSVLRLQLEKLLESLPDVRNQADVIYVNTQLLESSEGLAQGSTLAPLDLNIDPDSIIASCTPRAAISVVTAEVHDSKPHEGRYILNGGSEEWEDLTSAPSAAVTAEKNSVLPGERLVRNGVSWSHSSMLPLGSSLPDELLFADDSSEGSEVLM
How it was run: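 Kd values come from control-normalized FRET loss, referenced to DMSO vehicle wells, after 1 h at room temperature. Each compound was serially diluted over eight steps in DMSO and competed against Tracer 236 (Alexa Fluor 647) for the kinase, which was tagged by a Eu anti-GST antibody.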

CSF1R (M-NFS-60 cells) = assay: Cell Titer-Glo viability assay using M-NFS-60 cells; type: cell-based; conditions: Mus musculus, read-out: Cellular CSF1R activity by M-NFS-60 viability assay (IC50 activity range)
How it was run: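 M-NFS-60 cells grown with 62 ng/ml recombinant human M-CSF, seeded at 2×10^5 cells/well and incubated at 37 °C/5% CO2. Compounds given as 3-fold serial dilutions (10 doses); viability read by CellTiter-Glo luminescence, sigmoidal dose-response fit.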

CSF1R (Ba/F3 cells) = CSF1R (Ba/F3 cells) (Homo sapiens, UniProt P07333); assay: BaF3 viability assay, CSF1R-dependent cells; type: cell-based; conditions: read-out: Cellular CSF1R activity by Ba/F3 assay (IC50)
Sequence of CSF1R (Ba/F3 cells) (P07333 whole entry, change not shown): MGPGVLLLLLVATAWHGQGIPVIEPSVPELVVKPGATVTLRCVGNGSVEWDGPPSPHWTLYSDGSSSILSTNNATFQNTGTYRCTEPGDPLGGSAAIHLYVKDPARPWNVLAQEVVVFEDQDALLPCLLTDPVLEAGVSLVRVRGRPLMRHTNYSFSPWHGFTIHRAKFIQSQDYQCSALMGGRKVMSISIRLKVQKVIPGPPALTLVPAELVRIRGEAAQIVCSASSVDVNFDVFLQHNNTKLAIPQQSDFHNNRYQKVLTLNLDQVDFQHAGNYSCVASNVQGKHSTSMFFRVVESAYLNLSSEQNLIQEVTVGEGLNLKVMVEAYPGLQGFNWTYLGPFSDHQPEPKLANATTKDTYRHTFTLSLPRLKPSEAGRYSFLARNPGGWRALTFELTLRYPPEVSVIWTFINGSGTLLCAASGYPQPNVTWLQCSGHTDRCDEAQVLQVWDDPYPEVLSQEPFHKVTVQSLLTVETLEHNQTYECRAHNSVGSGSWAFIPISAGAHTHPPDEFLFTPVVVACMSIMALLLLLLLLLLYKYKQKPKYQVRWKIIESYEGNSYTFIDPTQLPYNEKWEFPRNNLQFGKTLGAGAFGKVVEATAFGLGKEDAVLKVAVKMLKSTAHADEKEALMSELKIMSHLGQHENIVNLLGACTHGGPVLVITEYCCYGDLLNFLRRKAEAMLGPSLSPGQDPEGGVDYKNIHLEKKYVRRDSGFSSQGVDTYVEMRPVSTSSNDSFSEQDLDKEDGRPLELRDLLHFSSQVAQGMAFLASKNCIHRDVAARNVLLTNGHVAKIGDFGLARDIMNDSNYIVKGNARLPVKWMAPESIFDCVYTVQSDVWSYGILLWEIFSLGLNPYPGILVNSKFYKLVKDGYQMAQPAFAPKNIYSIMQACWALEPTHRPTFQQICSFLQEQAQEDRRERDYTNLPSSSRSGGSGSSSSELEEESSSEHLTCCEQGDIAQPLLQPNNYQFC
Excerpt: In this system, IL-3-dependent Ba/F3 cells are modified to express an activated recombinant kinase (in the present case Axl, Mer and CSF1R). Following removal of IL-3, the modified cells are dependent on the activity of the recombinant kinase for survival and proliferation. Inhibition of such kinase(s) through test compounds reduces survival and proliferation of the cells.
Cell lines were maintained in growth media (GM) consisting of RPMI 1640 supplemented with 10% FBS. Cells in logarithmic-phase growth were harvested and 5,000 cells were distributed into each well of a 384-well plate in 50 μl GM. Parental cells (or experimental assays where specified) were further supplemented with 2 ng/ml IL-3 to support cell growth and survival. Fifty nanoliters of the indicated reference standard or experimental compound were added to appropriate wells (in duplicate) and the cells were cultured for 48 h at 37° C./5% CO2. Viability was determined by adding 10 μl Cell Titer Glo and measuring luminescence, which is reported as relative light units (RLU) measured in counts per second. The following calculations and formulas are used for data analysis using GraphPad Prism software: The curve fitting was made using the Dose response curves-Inhibition.

Row | Structure (SMILES) | Kd (Mer) | IC50 (CSF1R (M-NFS-60 cells)) | GI50 (CSF1R (Ba/F3 cells))
1 | COc1cc2nccc(Oc3ccc(NC(=O)c4nn(C[C@H](C)O)cc4OCC(F)(F)F)nc3)c2cc1OC [Compound 30] | < 100 nM | < 1000 nM | < 1000 nM
2 | CCCn1cc(OCCC(O)CO)c(C(=O)Nc2ccc(Oc3ccnc4cc(OC)c(OC)cc34)cn2)n1 (stereo not drawn) [Compound 15] | < 100 nM | 1000 to 10000 nM | 1000 to 10000 nM
3 | COc1cc2nccc(Oc3ccc(NC(=O)c4nn(C[C@@H](C)O)cc4OCC(F)(F)F)nc3)c2cc1OC [Compound 29] | < 100 nM | < 1000 nM | < 1000 nM
4 | COc1cc2nccc(Oc3ccc(NC(=O)c4nn(CC(C)O)cc4OCC(F)(F)F)nc3)c2cc1OC (stereo not drawn) [Compound 17] | < 100 nM | < 1000 nM | < 1000 nM
5 | CCCn1cc(OC(C)C)c(C(=O)Nc2ccc(Oc3ccnc4cc(OC)c(OC(F)(F)F)cc34)c(F)c2)n1 [Compound 35] | ≥ 500 nM | 1000 to 10000 nM | 1000 to 10000 nM
6 | COc1cc2nccc(Oc3ccc(NC(=O)c4nn(CC5CCCC5)cc4OCC(F)(F)F)nc3)c2cc1OC [Compound 71] | < 100 nM | 1000 to 10000 nM | 
7 | COc1cc2nccc(Oc3ccc(NC(=O)c4nn(C5CCOC5)cc4OCC(F)(F)F)nc3)c2cc1OC (stereo not drawn) [Compound 13] | < 100 nM | < 1000 nM | 
8 | COc1cc2nccc(Oc3ccc(NC(=O)c4nn(C5CC5)cc4OCCC(F)(F)F)nn3)c2cc1OC [Compound 173] | < 100 nM | 1000 to 10000 nM | 
9 | COc1cc2nccc(Oc3ccc(NC(=O)c4nn(C5CCC5)cc4OCC(F)(F)F)nc3)c2cc1OC [Compound 24] | < 100 nM | < 1000 nM | 
10 | COc1cc2nccc(Oc3ccc(NC(=O)c4nn(C(C)C)c(C)c4OCC(F)(F)F)nc3)c2cc1OC [Compound 2] | < 100 nM | < 1000 nM | 
11 | COc1cc2nccc(Oc3ccc(NC(=O)c4nn(C5CC5)cc4OCCC(F)(F)F)nc3)c2cc1OC [Compound 170] | < 100 nM | < 1000 nM | 
12 | CCCCn1cc(OCC(F)(F)F)c(C(=O)Nc2ccc(Oc3ccnc4cc(OC)c(OC)cc34)cn2)n1 [Compound 36] | < 100 nM | < 1000 nM | 
13 | COc1cc2nccc(Oc3ccc(NC(=O)c4nn(CC(C)C)cc4OCC(F)(F)F)nc3)c2cc1OC [Compound 21] | < 100 nM | < 1000 nM | 
14 | COc1cc2nccc(Oc3ccc(NC(=O)c4nn(C5CCOC5)cc4OCC(F)(F)F)cc3F)c2cc1OC (stereo not drawn) [Compound 55] | < 100 nM | 1000 to 10000 nM | 
15 | COc1cc2nccc(Oc3ccc(NC(=O)c4nn(C5CCCC5)cc4OCC(F)(F)F)c(F)c3)c2cc1OC [Compound 47] | < 100 nM | < 1000 nM | 
16 | COc1cc2nccc(Oc3ccc(NC(=O)c4nn(CCN)cc4OCC(F)(F)F)c(F)c3)c2cc1OC [Compound 75] | 100 to 500 nM | 1000 to 10000 nM | 
17 | COc1cc2nccc(Oc3ccc(NC(=O)c4nn(CC5CC5)cc4OCC(F)(F)F)nc3)c2cc1OC [Compound 41] | < 100 nM | < 1000 nM | 
18 | COc1cc2nccc(Oc3ccc(NC(=O)c4nn(CCCN)cc4OCC(F)(F)F)nc3)c2cc1OC [Compound 68] | < 100 nM | 1000 to 10000 nM | 
19 | COc1cc2nccc(Oc3ccc(NC(=O)c4nn(CC5CCNC5)cc4OCC(F)(F)F)nc3)c2cc1OC (stereo not drawn) [Compound 72] | < 100 nM | 1000 to 10000 nM | 
20 | COCCOc1cn(C2CC2)nc1C(=O)Nc1ccc(Oc2ccnc3cc(OC)c(OC)cc23)nn1 [Compound 171] | 100 to 500 nM | ≥ 10000 nM | 
21 | CCCn1cc(OCC(F)(F)F)c(C(=O)Nc2ccc(Oc3ccnc4cc(OC)c(OC)cc34)cc2)n1 [Compound 38] | < 100 nM | < 1000 nM | 
22 | COc1cc2nccc(Oc3ccc(NC(=O)c4nn(CC5CCOC5)cc4OCC(F)(F)F)nc3)c2cc1OC (stereo not drawn) [Compound 44] | < 100 nM | < 1000 nM | 
23 | COc1cc2nccc(Oc3ccc(NC(=O)c4nn(CC(C)C)cc4OCC(F)(F)F)cc3F)c2cc1OC [Compound 53] | < 100 nM | < 1000 nM | 
24 | COc1cc2nccc(Oc3ccc(NC(=O)c4nn(CCCO)cc4OCC(F)(F)F)nc3)c2cc1OC [Compound 18] | < 100 nM | < 1000 nM | < 1000 nM
25 | COc1cc2nccc(Oc3ccc(NC(=O)c4nn(C5CCCC5)cc4OCC(F)(F)F)cc3F)c2cc1OC [Compound 52] | < 100 nM | < 1000 nM | 
26 | CCCn1cc(OCC(F)(F)F)c(C(=O)Nc2ccc(Oc3ccnc4cc(OC)c(OC)cc34)c(F)c2)n1 [Compound 25] | < 100 nM | 1000 to 10000 nM | 
27 | COCCn1cc(OCC(F)(F)F)c(C(=O)Nc2ccc(Oc3ccnc4cc(OC)c(OC)cc34)c(F)c2)n1 [Compound 54] | < 100 nM | < 1000 nM | 
28 | COc1cc2nccc(Oc3ccc(NC(=O)c4sc(C5CC5)cc4OCC(F)(F)F)nc3)c2cc1OC [Compound 179] | 100 to 500 nM | < 1000 nM | 
29 | COc1cc2nccc(Oc3ccc(NC(=O)c4nn(CC(C)O)cc4OCC(F)F)nc3)c2cc1OC (stereo not drawn) [Compound 175] | < 100 nM | < 1000 nM | 
30 | CCC(=O)n1cc(OCC(F)(F)F)c(C(=O)Nc2ccc(Oc3ccnc4cc(OC)c(OC)cc34)cn2)n1 [Compound 20] | < 100 nM | < 1000 nM | 
